Measured values as given in patent US9808434B2, “Compound for treating cancer and diabetes” (CITY OF HOPE, priority 2011, dated 2017).

Legend:
H358 cells = experiment: MTT assay, H358; assay type: cell-based; conditions: Homo sapiens, NCI-H358, 48 h
Description: Cell density measurements were performed using a hemocytometer to count reproductive cells resistant to staining with trypan blue. Approximately 20,000 cells were plated into each well of 96-well flat-bottomed micro-titer plates. After 12 h or 24 h incubation at 37° C., medium containing either COH-SR4 (ranging 0-200 μM) or elesclomol (ranging 0-20 μM) were added to the cells. After 24 h, 48 h or 96 h incubation, 20 μL of 5 mg/mL MTT were introduced to each well and incubated for 2 h. The plates were centrifuged and medium was decanted. Cells were subsequently dissolved in 100 μl DMSO with gentle shaking for 2 h at room temperature, followed by measurement of OD570 (91).
The effect of COH-SR4 was first examined in a NCI panel of cancer cell lines, the results of which indicated good activity of COH-SR4 towards lung cancer (FIG. 78A). […] Values are presented as mean±SD from two separate determinations with eight replicates each (n=16) (FIG. 78B). […] Standard colony-forming assay was performed and the colonies were counted using Innotech Alpha Imager HP. […] TUNEL assay was performed using Promega fluorescence detection kit and examined using Zeiss LSM 510 META laser-scanning fluorescence microscope with filters 520 and 620 nm. […]

[1] = tested on: CDK2, CDK4, cyclin A, cyclin B1, cyclin E1, p27; experiment: Cell cycle regulator proteins in H358 and H520, Western-blot; assay type: cell-based, human; conditions: 24 h
Description: Cell or tissue proteins were extracted with cell lysis buffer (Cell Signaling Technology) and protein concentration was determined using the DC Protein Assay kit (Bio-Rad, Hercules, Calif., USA). Equal amount of proteins (˜40 μg) were loaded onto 4-15% Criterion TGX gels (Bio-Rad, Hercules, Calif.), resolved by SDS-PAGE electrophoresis, and then transferred onto nitrocellulose membranes for immunoblotting. Membranes were blocked with 5% skimmed milk in Tris-buffered saline containing 0.05% Tween 20 before incubation overnight at 4° C. with desired primary antibodies. Immuno-reactive proteins were visualized by peroxidase-labeled secondary antibodies and ECL system (Western Lightning Chemiluminescence Reagent, Perkin-Elmer, Mass., USA). Equal loading of proteins was confirmed by stripping and re-probing the membranes with either β-actin or GAPDH antibodies. Band intensities were quantified using a densitometer (Quantity One, Bio-Rad, Hercules, Calif.).
In the context of the elevation of GSTs in lung cancer, the impact of COH-SR4 on the catalytic activity of GSTs towards 1-chloro 2,4-dinitro benzene (CDNB), a model substrate used for GST activity was analyzed. GST activity towards 1-chloro 2,4-dinitro benzene (CDNB) and its inhibition by COH-SR4 was performed in 28000×g crude supernatant prepared from H1417, H1618, H520 and H358 cells. […]

HUVEC cells = experiment: HUVEC cytotoxicity; assay type: cell-based; conditions: 48 hours, up to 10 μM
Description: HUVEC were treated with COH-SR4 at a concentration from 0.1˜100 μM for 48 hours.

AMPK, ACC = experiment: AMP:ATP ratio and AMPK/ACC phosphorylation in liver of db/db mice; assay type: in vivo, mouse; conditions: 5 weeks
Description: ATP production from cells treated with test compounds were measured using the Luminescent ATP Detection Assay Kit. AMP, ATP and ADP were measured by UV-HPLC.
All animal experiments were carried out in accordance with the protocols approved by the Institutional Animal Care and Use Committee of the City of Hope. Nine-week old male C57BL/6J mice fed on high fat diet (HFD, 60% fat) and 10-week old db/db mice were given COH-SR4 (5 mg/kg B.W.) or vehicle (corn oil) via oral gavage every other day for six and five weeks, respectively. Oral glucose tolerance test was performed on animals after an overnight fast. All other metabolic parameters were measured at the end of study. Liver samples were stained with H&E and Oil Red O.
Total intracellular ATP production in cells treated with either 5 μM COH-SR4 or 5 μM FCCP was measured by bioluminescence assay and expressed as percentage of time-matched vehicle (DMSO) control (FIG. 84A). Intracellular AMP: ATP ratios increased in HepG2 liver carcinoma cells following 1 h treatment with either 5 μM COH-SR4 or 5 μM FCCP (FIG. 84B) and in liver of db/db mice treated with COH-SR4 (5 mg/kg B.W.) for 5 weeks (FIG. 84C). All data represented are mean±SEM, *P<0.05.
Treatment with the AMPK inhibitor Compound C (20 μM) diminished AMPK activation and ACC phosphorylation by either uncoupler COH-SR4 or FCCP (FIG. 84F).

H358 = experiment: Colony formation assay, H358; assay type: cell-based, human; conditions: 1.5 μM
Description: Cell survival was evaluated using a standard colony-forming assay. In total, 1×10^5 cells/mL were incubated with COH-SR4 (1.5 μM or 5 μM) or elesclomol (5 μM) for 24 h, and aliquots of 50 or 100 μL were added to 60 mm size petri dishes, containing 4 mL culture medium. After 7 or 10 days, adherent colonies were fixed, stained with 0.5% methylene blue for 30 min and colonies were counted using the Innotech Alpha Imager HP (91).
The effect of COH-SR4 was first examined in a NCI panel of cancer cell lines, the results of which indicated good activity of COH-SR4 towards lung cancer (FIG. 78A). […] Values are presented as mean±SD from two separate determinations with eight replicates each (n=16) (FIG. 78B). The COH-SR4 treatment exerted a significant inhibitory effect on the survival of lung cancer cells [IC50: H1417 cells-1.2±0.2 μM, H1618 cells-1.5±0.2 μM, H358 cells-2.1±0.2 μM and H520 cells-2.4±0.3 μM]. […] Following initial screening for the anticancer activity of COH-SR4, the effect of COH-SR4 on clonogenic potential was studied. Standard colony-forming assay was performed and the colonies were counted using Innotech Alpha Imager HP. […] The effect of COH-SR4 on induction of apoptosis was further investigated. […] TUNEL assay was performed using Promega fluorescence detection kit and examined using Zeiss LSM 510 META laser-scanning fluorescence microscope with filters 520 and 620 nm. […]

O=C(Nc1cc(Cl)cc(Cl)c1)Nc1cc(Cl)cc(Cl)c1 [COH-SR4, 1,3-bis(3,5-dichlorophenyl) urea]
IC50 (H358 cells): 2.1 ± 0.2 µM
protein level of p27 [1]: up-regulated
protein levels of CDK2, CDK4, cyclin A, cyclin B1 and cyclin E1 [1]: decreased the protein levels of CDK2, CDK4, cyclin A, cyclin B1 and cyclin E1
cytotoxicity to HUVEC cells (HUVEC cells): almost no cytotoxicity
intracellular AMP:ATP ratios in liver (AMPK, ACC; 5 mg/kg B.W.): increased
AMPK and ACC phosphorylations in liver (AMPK, ACC): Increased AMPK and ACC phosphorylations
colony formation (H358): 47±7%
